Experimental data as given in PubChem BioAssay AID1963873 (Molecular Pharmacology Branch, DTP, NCI, 2024).

Tested on: 276233-004-R-J1-PDC KRAS spheroids with HUVEC/MSC, viability
Experiment: Anticancer human tumor 276233-004-R-J1-PDC patient-derived colon adenocarcinoma cell line growth inhibition [KRAS2]
Details: for IC50: curve of first compound; for viability, T/C: stronger effect = lower value; active = viability on the fitted dose curve at most 10% of control; inactive = the rest
Summary of the method: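 KRAS-mutant tumor cells were grown as spheroids with HUVEC endothelial cells and human MSCs as stroma. Targeted agents were tested alone and with KRAS pathway inhibitors. Doses started at or near clinical Cmax, or 10 microM, descending half-log.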

[1] = second compound 0.0316 µM, first compound 0.000316 µM
[2] = second compound 0.0316 µM, first compound 0.001 µM
[3] = second compound 0.0316 µM, first compound 0.00316 µM
[4] = second compound 0.0316 µM, first compound 0.01 µM
[5] = second compound 0.0316 µM, first compound 0.0316 µM
[6] = second compound 0.1 µM, first compound 0.000316 µM
[7] = second compound 0.1 µM, first compound 0.001 µM
[8] = second compound 0.1 µM, first compound 0.00316 µM
[9] = second compound 0.1 µM, first compound 0.01 µM
[10] = second compound 0.1 µM, first compound 0.0316 µM
[11] = second compound 0.316 µM, first compound 0.000316 µM
[12] = second compound 0.316 µM, first compound 0.001 µM
[13] = second compound 0.316 µM, first compound 0.00316 µM
[14] = second compound 0.316 µM, first compound 0.01 µM
[15] = second compound 0.316 µM, first compound 0.0316 µM
[16] = second compound 1 µM, first compound 0.000316 µM
[17] = second compound 1 µM, first compound 0.001 µM
[18] = second compound 1 µM, first compound 0.00316 µM
[19] = second compound 1 µM, first compound 0.01 µM
[20] = second compound 1 µM, first compound 0.0316 µM
[21] = second compound 3.16 µM, first compound 0.000316 µM
[22] = second compound 3.16 µM, first compound 0.001 µM
[23] = second compound 3.16 µM, first compound 0.00316 µM
[24] = second compound 3.16 µM, first compound 0.01 µM
[25] = second compound 3.16 µM, first compound 0.0316 µM
[26] = second compound 0.0316 µM, first compound 0.1 µM
[27] = second compound 0.1 µM, first compound 0.1 µM
[28] = second compound 0.316 µM, first compound 0.1 µM
[29] = second compound 1 µM, first compound 0.1 µM
[30] = second compound 3.16 µM, first compound 0.1 µM
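Also: cells exposed to agents for seven days before viability read.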
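For viability, T/C in this document: 100% = DMSO vehicle control wells and lower values mean fewer viable cells.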

CC(=O)Nc1cccc(-n2c(=O)n(C3CC3)c(=O)c3c(Nc4ccc(I)cc4F)n(C)c(=O)c(C)c32)c1 + C=CC(=O)N1CCN(c2nc(OCC3CCCN3C)nc3c2CCN(c2cccc4cccc(C)c24)C3)CC1CC#N
0.141 nM: IC50 (second compound 3.16 µM)
2.49 nM: IC50 (second compound 1 µM)
inactive: viability, T/C (second compound 0.0316 µM, first compound 0.0001 µM) 79.5% | viability, T/C [1] 92.4% | viability, T/C [2] 81.2% | viability, T/C [3] 66.9% | viability, T/C [4] 44.9% | viability, T/C [5] 16.8% | viability, T/C (second compound 0.1 µM, first compound 0.0001 µM) 82.2% | viability, T/C [6] 86.3% | viability, T/C [7] 72.8% | viability, T/C [8] 63.1% | viability, T/C [9] 50.4% | viability, T/C [10] 22.6% | viability, T/C (second compound 0.316 µM, first compound 0.0001 µM) 76.1% | viability, T/C [11] 83.7% | viability, T/C [12] 61.6% | viability, T/C [13] 64.7% | viability, T/C [14] 31.5% | viability, T/C (second compound 1 µM, first compound 0.0001 µM) 93.3% | viability, T/C [16] 95.9% | viability, T/C [17] 60.6% | viability, T/C [18] 47% | viability, T/C [19] 25.4% | viability, T/C (second compound 3.16 µM, first compound 0.0001 µM) 57.5% | viability, T/C [21] 32.3% | viability, T/C [22] 16.7% | viability, T/C [23] 14.7%
7.53 nM: IC50 (second compound 0.0316 µM)
active: viability, T/C [15] 10% | viability, T/C [20] 7% | viability, T/C [24] 4.17% | viability, T/C [25] 3.27%
9.05 nM: IC50 (second compound 0.1 µM)
4.73 nM: IC50 (second compound 0.316 µM)

CN(C)C/C=C/C(=O)Nc1cc2c(Nc3ccc(F)c(Cl)c3)ncnc2cc1O[C@H]1CCOC1 + C=CC(=O)N1CCN(c2nc(OCC3CCCN3C)nc3c2CCN(c2cccc4cccc(C)c24)C3)CC1CC#N
> 100 nM: IC50 (second compound 0.0316 µM) | IC50 (second compound 0.1 µM) | IC50 (second compound 0.316 µM) | IC50 (second compound 1 µM)
0.902 nM: IC50 (second compound 3.16 µM)
inactive: viability, T/C [1] 112% | viability, T/C [2] 114% | viability, T/C [3] 91.3% | viability, T/C [4] 102% | viability, T/C [5] 97.4% | viability, T/C [26] 86.3% | viability, T/C [6] 116% | viability, T/C [7] 93.8% | viability, T/C [8] 91.3% | viability, T/C [9] 85% | viability, T/C [10] 88% | viability, T/C [27] 85.7% | viability, T/C [11] 87% | viability, T/C [12] 110% | viability, T/C [13] 91.9% | viability, T/C [14] 78.3% | viability, T/C [15] 81.5% | viability, T/C [28] 72.2% | viability, T/C [16] 84.8% | viability, T/C [17] 78.8% | viability, T/C [18] 70.5% | viability, T/C [19] 83.6% | viability, T/C [20] 84.2% | viability, T/C [29] 78.7% | viability, T/C [21] 67.5% | viability, T/C [22] 52.7% | viability, T/C [23] 37.8% | viability, T/C [24] 27.6% | viability, T/C [25] 53.2% | viability, T/C [30] 47.7%

COC(=O)c1ccc2c(C(=Nc3ccc(N(C)C(=O)CN4CCN(C)CC4)cc3)c3ccccc3)c(O)[nH]c2c1 + C=CC(=O)N1CCN(c2nc(OCC3CCCN3C)nc3c2CCN(c2cccc4cccc(C)c24)C3)CC1CC#N
active: viability, T/C (second compound 3.16 µM, first compound 10 µM) 3.45%
> 10000 nM: IC50 (second compound 0.0316 µM) | IC50 (second compound 0.1 µM) | IC50 (second compound 0.316 µM) | IC50 (second compound 1 µM)
< 31.6 nM: IC50 (second compound 3.16 µM)
inactive: viability, T/C [5] 86.4% | viability, T/C [26] 95.1% | viability, T/C (second compound 0.0316 µM, first compound 0.316 µM) 77.5% | viability, T/C (second compound 0.0316 µM, first compound 1 µM) 83.6% | viability, T/C (second compound 0.0316 µM, first compound 3.16 µM) 81.8% | viability, T/C (second compound 0.0316 µM, first compound 10 µM) 93.2% | viability, T/C [10] 77.4% | viability, T/C [27] 65.8% | viability, T/C (second compound 0.1 µM, first compound 0.316 µM) 59.2% | viability, T/C (second compound 0.1 µM, first compound 1 µM) 71.7% | viability, T/C (second compound 0.1 µM, first compound 3.16 µM) 89.7% | viability, T/C (second compound 0.1 µM, first compound 10 µM) 64% | viability, T/C [15] 83.6% | viability, T/C [28] 87.5% | viability, T/C (second compound 0.316 µM, first compound 0.316 µM) 76.2% | viability, T/C (second compound 0.316 µM, first compound 1 µM) 77.1% | viability, T/C (second compound 0.316 µM, first compound 3.16 µM) 78.6% | viability, T/C (second compound 0.316 µM, first compound 10 µM) 70% | viability, T/C [20] 88% | viability, T/C [29] 78.8% | viability, T/C (second compound 1 µM, first compound 0.316 µM) 69.8% | viability, T/C (second compound 1 µM, first compound 1 µM) 62.1% | viability, T/C (second compound 1 µM, first compound 3.16 µM) 69.1% | viability, T/C (second compound 1 µM, first compound 10 µM) 65.7% | viability, T/C [25] 39.6% | viability, T/C [30] 46.6% | viability, T/C (second compound 3.16 µM, first compound 0.316 µM) 34.4% | viability, T/C (second compound 3.16 µM, first compound 1 µM) 26.9% | viability, T/C (second compound 3.16 µM, first compound 3.16 µM) 18.7%
